From patent publication US10251392B2, “Antimicrobial devices and compositions” (Avent, Inc., priority 2004, dated 2019)

Experiment: Light stability (discoloration by light exposure)
Format: physicochemical
Details: ambient / room light
Procedure: The term “light stable” in the present context is meant to indicate either of two conditions; (i) no visible change in the color of the compositions of patient and wound care products after 24 hour exposure to light conditions typically encountered indoors in hospital, offices, or home that are normally used to aid visibility.

light sensitivity of the solid powder: remained unchanged
SMILES: [Ag+].c1ccc2[n-]cnc2c1 [silver benzimidazole complex]
